ChEMBL document CHEMBL4043067, “Synthesis and cytotoxic activities of goniothalamins and derivatives” (Bioorg Med Chem, 2017)

Legend:
[1] = tested on: MCF7; assay: Antiproliferative activity against human MCF7 cells after 48 hrs by CellTiter-Glo luminescent cell viability assay; format: functional, cell-based; conditions: MCF7, 48 h
[2] = tested on: Saccharomyces cerevisiae; assay: Cytotoxicity against Saccharomyces cerevisiae YRE1001 up to 100 ug/ml after 48 hrs by liquid drug assay
[3] = tested on: A549; assay: Antiproliferative activity against human A549 cells after 48 hrs by CellTiter-Glo luminescent cell viability assay; format: functional, cell-based; conditions: A549, 48 h
[4] = tested on: HBL-100; assay: Antiproliferative activity against human HBL100 cells after 48 hrs by CellTiter-Glo luminescent cell viability assay; format: functional, cell-based; conditions: HBL-100, 48 h
[5] = tested on: Saccharomyces cerevisiae; assay: Inhibition of Pdr5 in Saccharomyces cerevisiae YRE1001 plasma membranes assessed as reduction in rhodamine 6G transport by measuring relative fluorescence intensity at 50 ug/ml preincubated with enzyme followed by ATP addition measured for 20 mins by fluorescence assay relative to control; design: scale not given: the % may be the effect or the level left
[6] = tested on: Saccharomyces cerevisiae; assay: Inhibition of Pdr5 ATPase activity in Saccharomyces cerevisiae YRE1001 plasma membranes assessed as residual activity at 500 ug/ml after 20 mins in presence of ATP by colorimetric assay relative to control
[7] = tested on: Saccharomyces cerevisiae; assay: Inhibition of Pdr5 ATPase activity in Saccharomyces cerevisiae YRE1001 plasma membranes assessed as residual activity at 50 ug/ml after 20 mins in presence of ATP by colorimetric assay relative to control
[8] = tested on: Saccharomyces cerevisiae; assay: Inhibition of Pdr5 in Saccharomyces cerevisiae YRE1001 plasma membranes assessed as reduction in rhodamine 6G transport by measuring relative fluorescence intensity at 5 ug/ml preincubated with enzyme followed by ATP addition measured for 20 mins by fluorescence assay relative to control; design: scale not given: the % may be the effect or the level left
[9] = tested on: Saccharomyces cerevisiae; assay: Inhibition of Pdr5 ATPase activity in Saccharomyces cerevisiae YRE1001 plasma membranes assessed as residual activity at 5 ug/ml after 20 mins in presence of ATP by colorimetric assay relative to control
[10] = tested on: Saccharomyces cerevisiae; assay: Inhibition of Pdr5 in Saccharomyces cerevisiae YRE1001 plasma membranes assessed as reduction in rhodamine 6G transport by measuring relative fluorescence intensity at 500 ug/ml preincubated with enzyme followed by ATP addition measured for 20 mins by fluorescence assay relative to control; design: scale not given: the % may be the effect or the level left
[11] = tested on: Saccharomyces cerevisiae; assay: Inhibition of Pdr5 ATPase activity in Saccharomyces cerevisiae YRE1001 plasma membranes assessed as residual activity at 13 ug/ml after 20 mins in presence of ATP by colorimetric assay relative to control
[12] = tested on: Saccharomyces cerevisiae; assay: Inhibition of Pdr5 in Saccharomyces cerevisiae YRE1001 plasma membranes assessed as reduction in rhodamine 6G transport by measuring relative fluorescence intensity at 125 ug/ml preincubated with enzyme followed by ATP addition measured for 20 mins by fluorescence assay relative to control; design: scale not given: the % may be the effect or the level left
[13] = tested on: Saccharomyces cerevisiae; assay: Inhibition of Pdr5 ATPase activity in Saccharomyces cerevisiae YRE1001 plasma membranes assessed as residual activity at 125 ug/ml after 20 mins in presence of ATP by colorimetric assay relative to control
[14] = tested on: Saccharomyces cerevisiae; assay: Inhibition of Pdr5 in Saccharomyces cerevisiae YRE1001 plasma membranes assessed as reduction in rhodamine 6G transport by measuring relative fluorescence intensity at 13 ug/ml preincubated with enzyme followed by ATP addition measured for 20 mins by fluorescence assay relative to control; design: scale not given: the % may be the effect or the level left
[15] = tested on: Saccharomyces cerevisiae; assay: Inhibition of Pdr5 ATPase activity in Saccharomyces cerevisiae YRE1001 plasma membranes assessed as residual activity at 250 ug/ml after 20 mins in presence of ATP by colorimetric assay relative to control

| Structure (SMILES) | IC50 [1] | IC50 [3] | Activity [5] | Activity [6] | Activity [7] | Activity [8] | Activity [9] | Activity [10] | Activity [11] | Activity [12] | Activity [13] | Activity [14] | Activity [15] | Activity [2] | IC50 [4] |
| --- | --- | --- | --- | --- | --- | --- | --- | --- | --- | --- | --- | --- | --- | --- | --- |
| O=C1CCC[C@H]([C@H]2C[C@@H]2c2ccccc2)O1 | > 100 µM | > 100 µM | – | – | – | – | – | – | – | – | – | – | – | Toxic | > 100 µM |
| O=C1CCC[C@H]([C@@H]2C[C@H]2c2ccccc2)O1 | > 100 µM | > 100 µM | – | – | – | – | – | – | – | – | – | – | – | Toxic | > 100 µM |
| O=C1CCC[C@@H]([C@H]2C[C@@H]2c2ccccc2)O1 | > 100 µM | > 100 µM | – | – | – | – | – | – | – | – | – | – | – | Toxic | > 100 µM |
| C[C@H](Cc1ccccc1)[C@H]1CCCC(=O)O1 | > 100 µM | > 100 µM | – | – | – | – | – | – | – | – | – | – | – | Toxic | > 100 µM |
| O=C1C=CC[C@@H](/C=C/C2CCCCC2)O1 | > 100 µM | 68.6 µM | 37% | 53% | 74.7% | 86% | 88% | 0% | – | – | – | – | – | Toxic | 48.2 µM |
| C[C@@H](Cc1ccccc1)[C@H]1CCCC(=O)O1 | > 100 µM | > 100 µM | – | – | – | – | – | – | – | – | – | – | – | Toxic | > 100 µM |
| O=C1C=CC[C@H]([C@@H]2C[C@H]2c2ccccc2)O1 | > 100 µM | 62.8 µM | – | – | – | – | – | – | – | – | – | – | – | Toxic | 43.4 µM |
| COc1ccc(/C=C/[C@H]2CC=CC(=O)O2)cc1 | > 100 µM | > 100 µM | 4% | 0% | 8.7% | 44% | 25.7% | 0% | – | – | – | – | – | Non-Toxic | > 100 µM |

Now from value to molecule, other results behind:

| IC50 [1] | IC50 [3] | Activity [5] | Activity [6] | Activity [7] | Activity [8] | Activity [9] | Activity [10] | Activity [11] | Activity [12] | Activity [13] | Activity [14] | Activity [15] | Structure (SMILES) | Activity [2] | IC50 [4] |
| --- | --- | --- | --- | --- | --- | --- | --- | --- | --- | --- | --- | --- | --- | --- | --- |
| > 100 µM | 70.3 µM | – | – | – | – | – | – | – | – | – | – | – | O=C1C=CC[C@@H](/C=C/c2ccccc2)O1 | Toxic | > 100 µM |
| > 100 µM | 34.7 µM | – | – | – | – | – | – | – | – | – | – | – | O=C1C=CCC(/C=C/c2ccccc2)O1 (racemic) | Toxic | 22.4 µM |
| 88.7 µM | > 100 µM | – | – | – | – | – | – | – | – | – | – | – | COc1ccc(/C=C/[C@@H]2CC=CC(=O)O2)cc1 | Toxic | > 100 µM |
| 55.5 µM | 5.7 µM | 10% | 24.3% | 30% | 60% | 71.7% | -2% | – | – | – | – | – | O=C1C=CC[C@H](/C=C/c2ccccc2)O1 [GONIOTHALAMIN] | Toxic | 20.9 µM |
| > 100 µM | 31 µM | 18% | 56% | 79% | 91% | 98% | -8% | – | – | – | – | – | O=C1C=CC[C@H](/C=C/C2CCCCC2)O1 | Toxic | 29 µM |
| 68.3 µM | 15.2 µM | – | – | – | – | – | – | – | – | – | – | – | O=C1C=CC[C@@H]([C@H]2C[C@@H]2c2ccccc2)O1 | Toxic | 34.9 µM |
| 48.2 µM | 11.6 µM | – | – | – | – | – | – | – | – | – | – | – | O=C1C=CC[C@H]([C@H]2C[C@@H]2c2ccccc2)O1 | Toxic | 14.4 µM |
| 28.8 µM | 15.4 µM | – | – | – | – | – | – | 79.3% | 21% | 51% | 54% | 50% | O=C1C=CC[C@H](/C=C/c2ccc([N+](=O)[O-])cc2)O1 | Toxic | 6.7 µM |
| > 100 µM | > 100 µM | 75% | 26.3% | 40.7% | 99% | 71% | 10% | – | – | – | – | – | O=C1C=CC[C@@H](/C=C/c2ccc(F)cc2)O1 | Toxic | > 100 µM |
| > 100 µM | > 100 µM | – | – | – | – | – | – | – | – | – | – | – | O=C1C=CC[C@@H](/C=C/c2ccc([N+](=O)[O-])cc2)O1 | Toxic | > 100 µM |
| 76.2 µM | 10.2 µM | – | – | – | – | – | – | – | – | – | – | – | O=C1C=CC[C@H](/C=C/c2ccc(F)cc2)O1 | Toxic | 14.1 µM |
